Converted amounts (≈) assume the structure as drawn. Where two headings read alike, the source gives them in different places. Square brackets hold non-standard residues; d marks the D form. Ends that are not written are not given here. Peptide text beside a SMILES is read from it.
Legend:
bacterial strains = assay: organism not typed; assay type: cell-based
Protocol: (§1) Three preferred peptides G11.46, G12.21 and G14.15, discussed above, were further tested for antimicrobial efficacy under various conditions using the 10% FCS/DMEM assay as described under CFU assay. The incubation times with the bacteria and peptide was three hours, at which time the bacteria were diluted and plated on agar. […] The MIC for each compound is highlighted.
Table 9 below repeats some data presented above in Tables 6, 7, and 8.

[1] = test system: human peripheral blood mononuclear cells (PBMC); assay: Propidium iodide uptake in PBMC; assay type: cell-based
Description: The second assay for effects on mammalian cells involved isolating human peripheral blood mononuclear cells (PBMC) and testing peptide induced uptake of propidium iodide (PI), a measure of membrane disruption. […] Thus, the vast majority of granulysin peptide derivatives are not toxic to mammalian cells even at high concentrations.

Salmonella = assay type: cell-based, S. typhimurium
Outline: (§2)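 Peptides were diluted in 10 mM phosphate buffer, pH 7.2 with 0.03% LB and incubated with bacteria (~5×10^6 CFU/ml) for 3 h at 37 °C in microtiter wells. LB was then added, growth continued overnight, and OD 600 nm was read. MIC is the lowest concentration with no growth; IC50 gives 50% growth versus medium.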

E. coli DH5a = assay type: cell-based
Outline: as §2

B. cereus [2] = assay type: cell-based
Outline: as §2

B. cereus [3] = assay: CFU assay in 10% FCS/DMEM; assay type: cell-based; details: 3 hrs
Protocol: (§3) The CFU assay is the “gold standard” for evaluating antibiotics. Briefly, bacteria are grown overnight in rich medium, such as LB, and then diluted and grown in log phase for 2-4 hours. Cultures are set up as above, with the initial culture media being 10 mM phosphate buffer/0.03% LB; DMEM or RPMI; or DMEM or RPMI plus 10% serum (fetal calf, human, or mouse). After various periods of time, but generally 3 hours or less, aliquots are removed, diluted in LB at various dilutions, and plated on LB agar plates. Plates are incubated overnight at 37° C. and counted on an automatic colony counter.
as §1

bacteria [4] = assay: Activity in DMEM and RPMI media (lysis of bacteria); assay type: cell-based; set-up: key to Active in DMEM: YES: Active in DMEM; a blank means no activity; details: Table 2; tested in DMEM and RPMI
Protocol: as §3
In the column “Active in DMEM”, a blank means no activity. MAP stands for multiple antigenic peptide, where a number of identical peptide chains are synthesized and joined to a common core (like a dendrimer).
The peptides listed in Table 2 were tested in DMEM and RPMI, media that approximate blood and tissue conditions in vivo and those that were active under these conditions are listed in the last column (active in DMEM). […] No peptides that were all L-isomer peptides lysed bacteria in DMEM supplemented with serum.
The hydrophobic moment is a measure of amphipathicity and indicates how well the hydrophobic residues fall on one side of the helix while the hydrophilic residues fall on the opposite side is shown in column 7. This was determined using the Membrane Explorer Program (http://blanco.biomol.uci.edu/mpex/). A high number indicates a high hydrophobic moment. Column 8 again (like Table 2) indicates which of these peptides is active in DMEM.

bacteria [5] = assay: Activity in serum containing media (10% FCS in DMEM or RPMI); assay type: cell-based; details: 10% FCS in DMEM or RPMI
Protocol: as §3
Tests were conducted in low salt concentrations so that active peptide candidates could be identified more readily. It is important for in vivo applications that the present antimicrobial peptides be active in physiological salt concentrations (150 mM) as well as in the presence of other tissue components, such as blood plasma (serum). Serum may contain proteases that destroy peptides; the use of D-amino acids can improve protease resistance. See G12.21. […] Also active were G11.6, G11.26, G11.29, G11.30, G11.34, G11.35, G12.11, G12.19, G12.20 and G12.21. […]

[6] = 10 mM phosphate buffer, pH 7.2, 0.03% LB

Row | Compound | MIC (bacterial strains; ATCC#25922, 3 h) [µM] | MIC (bacterial strains; ATCC#29213, 3 h) [µM] | MIC (bacterial strains; ATCC#53522, 3 h) [µM] | MIC (bacterial strains; SL1344, 3 h) [µM] | IC50 (Salmonella; pH 7.2) [nM] | Salmonella MIC (Salmonella; pH 7.2) [µM] | MIC (E. coli DH5a; DH5a) [µM] | E. coli DH5a MIC (E. coli DH5a; DH5a, pH 7.2) [µM] | IC50 (E. coli DH5a; DH5a, pH 7.2) [nM] | B. cereus MIC (B. cereus [2]; pH 7.2) [µM] | IC50 (B. cereus [2]; pH 7.2) [nM] | Active in DMEM (bacteria [4]) | active in serum containing media (bacteria [5]) | also measured
1 | CSCC[C@@H](NC(=O)[C@H]1CCCN1C(=O)[C@@H](CCCNC(=N)N)NC(=O)[C@@H](CCCNC(=N)N)NC(=O)[C@@H](CO)NC(=O)[C@H](NC(=O)[C@@H](CCCNC(=N)N)NC(=O)[C@H](N)CCCNC(=N)N)C(C)C)C(=O)N[C@H](CCCNC(=N)N)C(=O)N[C@H](CCCNC(=N)N)C(=O)N[C@H](Cc1ccc(O)cc1)C(=O)N[C@H](CCCNC(=N)N)C(=O)N[C@H](CO)C(=O)N[C@H](CCCNC(=N)N)C(=O)N[C@H](CCCNC(=N)N)C(=O)N1CCC[C@@H]1C(=O)N[C@H](CCCNC(=N)N)C(=O)N[C@H](CCCNC(=N)N)C(=O)N[C@H](CC(C)C)C(=O)N[C@@H](C(=O)O)C(C)C [Peptide G12.21, rrvsrrpmrryrsrrprrlv] (H-[dR][dR][dV][dS][dR][dR][dP][dM][dR][dR][dY][dR][dS][dR][dR][dP][dR][dR][dL][dV]-OH) | 0.63 (≈ 1.71 µg/mL) | 0.32 to 0.63 | 0.02 (≈ 0.0542 µg/mL) | 1.25 to 2.5 | 210 | 0.35 | 0.2 (≈ 0.542 µg/mL) | 0.2 | < 78 | 0.35 | 210 | – | – | toxicity against mammalian cells [1]: no toxicity
2 | CSCC[C@@H](NC(=O)[C@@H](Cc1ccccc1)NC(=O)[C@@H](CCCNC(=N)N)NC(=O)[C@@H](CCCNC(=N)N)NC(=O)[C@@H](CO)NC(=O)[C@H](NC(=O)[C@@H](CCCNC(=N)N)NC(=O)[C@@H](CCCNC(=N)N)NC(=O)[C@@H](Cc1c[nH]c2ccccc12)NC(=O)[C@@H](CCCNC(=N)N)NC(=O)[C@@H](CO)NC(=O)[C@@H](CCCNC(=N)N)NC(=O)CN)C(C)C)C(=O)N[C@H](CCCNC(=N)N)C(=O)N[C@H](CCCNC(=N)N)C(=O)O [Peptide G14.15, grsrwrrvsrrfmrr] (H-G[dR][dS][dR][dW][dR][dR][dV][dS][dR][dR][dF][dM][dR][dR]-OH) | 0.63 to 1.25 | 10 (≈ 20.6 µg/mL) | 0.16 (≈ 0.33 µg/mL) | 2.5 to 5 | 150 | 0.35 | 0.3 (≈ 0.619 µg/mL) | 0.1 | < 78 | 0.2 | < 78 | – | – | PI uptake in normal human PBMC ([1]; 50 μM peptide, three hours): caused PI uptake in normal human PBMC
3 | CN[C@H](CC(C)C)C(=O)N[C@H]1C(=O)N[C@@H](CC(N)=O)C(=O)N[C@H]2C(=O)N[C@H]3C(=O)N[C@H](C(=O)N[C@H](C(=O)O)c4cc(O)cc(O)c4-c4cc3ccc4O)[C@H](O)c3ccc(c(Cl)c3)Oc3cc2cc(c3O[C@@H]2O[C@H](CO)[C@@H](O)[C@H](O)[C@H]2O[C@H]2C[C@](C)(N)[C@H](O)[C@H](C)O2)Oc2ccc(cc2Cl)[C@H]1O [vancomycin, reference compound] | – | – | – | – | – | – | – | – | – | – | – | – | – | MIC (bacterial strains; 3 h): > 10 µM; MIC (bacterial strains; Bacillus cereus, ATCC53522, 3 h): 2.5 µM (≈ 3.62 µg/mL); % Survival (CFU Assay) (B. cereus [3]; 0.08 uM): 97.67%; % Survival (CFU Assay) (B. cereus [3]; 0.16 uM): 113.37%; % Survival (CFU Assay) (B. cereus [3]; 0.32 uM): 79.59%; % Survival (CFU Assay) (B. cereus [3]; 0.63 uM): 63.73%; % Survival (CFU Assay) (B. cereus [3]; 1.25 uM): 9.06%; % Survival (CFU Assay) (B. cereus [3]; 2.5 uM): 1.09%
4 | CRRVSRRFMRRC [G11.29 CYC] | – | – | – | – | – | – | – | – | – | – | – | YES | active | Salmonella MIC (Salmonella; [6]): 2.8 µM; IC50 (Salmonella; 10 mM phosphate buffer, pH 7.2, 0.03% LB, read-out: Salmonella IC50): 1750 nM; E. coli DH5a MIC (E. coli DH5a; [6]): 1.4 µM; IC50 (E. coli DH5a; 10 mM phosphate buffer, pH 7.2, 0.03% LB, read-out: E. coli DH5a IC50): 750 nM; B. cereus MIC (B. cereus [2]; [6]): 1.39 µM; IC50 (B. cereus [2]; 10 mM phosphate buffer, pH 7.2, 0.03% LB, read-out: B. cereus IC50): 890 nM
5 | RDVSRRFMRRGSRDVSRRFMRR [Peptide G11.6] | – | – | – | – | 890 | 1.4 | – | 0.7 | 450 | 2.4 | 890 | YES | active | –

Source: patent US7745390B2, “Antimicrobial peptides” (priority 2005, dated 2010)
